Source: PMC3280530, “Marine Compounds Selectively Induce Apoptosis in Female Reproductive Cancer Cells but Not in Primary-Derived Human Reproductive Granulosa Cells” (Marine Drugs, 2012)

Columns and labels:
JAr cells [1] = experiment: MTT cell viability assay; format: cell-based; conditions: Homo sapiens
Experimental: (§1) For cell assays, the D. orbita fractions were prepared fresh on the day of the experiment by dissolving in dimethyl sulfoxide (DMSO; 100%) at 100× the final concentration. These were diluted to a range of working concentrations (0.001–0.5 mg/mL) in complete cell assay medium to give a final working concentration per well of 1% DMSO. All samples were filtered through a […] (Sartorius) filter before use.
(§2) The primary-derived granulosa cells, along with the KGN, JAr and OVCAR-3 cell lines (10,000 cells per well) were plated into sterile white (opaque) 96-well plates (Interpath) and clear sterile 96-well plates (Interpath) in 0.1 mL per well of complete cell culture medium for 24 h (granulosa, KGN and OVCAR-3 cells) and 2 h (for JAr cells) to allow cell adherence. Standard curves of 0–40,000 cells per well (primary granulosa cells) and 0–80,000 cells per well (for KGN, JAr and OVCAR-3 cells) in six replicate wells were plated into clear 96-well plates, alongside the test plates. After the initial cell adherence period, spent media (media deficient of nutrients and serum) were discarded and primary-derived granulosa, KGN, JAr and OVCAR-3 cells were treated with the two D. orbita fractions at concentrations of 0.005, 0.01, 0.05, 0.1, and 0.5 mg/mL in a final volume of 0.1 mL per well in triplicate wells, for 4 and 24 h at 37 °C + 5% CO2. 1 h prior to the end of eachincubation period two positive controls were added; one for apoptosis (1 μg/mL DNase I), and the second for necrosis (2 μL per well of a cell lysis buffer; Promega). This experiment was repeated on three separate occasions (n = 3).
(§3) After 4, 24, 48 and 72 h exposure to D. orbita fractions in clear 96-well plates, media and all dead unattached cells were removed. The remaining adherent cells were rinsed with sterile 1× PBS and the MTT assay was performed. The MTT assay measures the reduction of a yellow substrate to formazan, a purple precipitate, by the mitochondrial succinate dehydrogenase enzymes. A solution of 0.5 mg/mL MTT (was added to wells in a final volume of 0.1 mL. The plates were then incubated for 1 h (JAr cells) and 18 h (KGN, OVCAR-3 and GC cells) at 37 °C and 5% CO2. At the end of the incubation period, 80 μL/well 20% SDS in 0.02 M HCl was added and plate was incubated for a further 1 h at room temperature in the dark. The absorbance was the measured at 570 nm, with reference absorbance 630 nm, using an automatic spectrophotometer using KC Junior software. This assay was repeated on three separate occasions (n = 3).

[2] = system: primary-derived human reproductive granulosa cells (HGC); experiment: MTT cell viability assay; format: cell-based; conditions: Homo sapiens, HGC, MTT
Experimental: as §1, §2, §3

KGN cells [3] = experiment: TUNEL staining (apoptosis); format: cell-based, human
Experimental: (§4) Primary-derived human granulosa cells and KGN cells were plated into Nunc Lab-Tek II CC2 Chamber Slides at 30,000 cells per chamber well in a final volume of 0.3 mL of DMEM/F12 + 10% FBS complete cell culture medium and incubated for 24 h at 37 °C + 5% CO2 to allow cell attachment to slides. Spent media (media deficient of nutrients and serum) and non-viable and non-adherent cellswere discarded and replaced with the D. orbita fractions at concentrations of 0.005, 0.01 and 0.05 mg/mL in a final volume of 0.3 mL of DMEM/F12 + 10% medium. A medium-only and a 1% DMSO control were also added before incubation for 4 and 24 h at 37 °C + 5% CO2. This experiment was repeated on three separate occasions (n = 3). The supernatant was removed and the cells rinsed with PBS before fixation with 4% paraformaldehyde for 25 min at room temperature. The DeadEnd™ Fluorometric TUNEL System (Promega) was performed as recommended by the manufacturer. Briefly the cells were treated with 0.2% Triton X-100 for 5 min, to permeablize the cells. The cells were rinsed in PBS before the addition of 50 μL of rTdT incubation buffer (Promega) at 37 °C for 1 h, protected from light. Cells were rinsed in 2× sodium chloride and sodium citratesolution (Promega) for 15 min at room temperature (25 °C) then rinsed again with PBS. The cells were counter-stained with 1 μg/mL propidium iodide (PI). A separate positive control slide of 1 μg/mL DNase I, and a negative control slide of buffer without rTdT, was prepared in conjunction with treatment slides. Cells were examined immediately and photographed at 200 and 400× magnification using a Fluorescence Olympus BX50 Microscope with filter Chroma 31001 at excitation 450–495 nm, Dichroic 505 and emission 515–555 nm for the green fluorescein of TUNEL and Chroma 31002 at excitation 515–550 nm, Dichroic 565 and emission 575–615 nm for the red fluorescence of the PI staining. Photomicrographs of four fields of view were taken for each treatment in each repeat of theassay and the number of TUNEL positive nuclei, stained bright green, were calculated as a fraction of the total number of PI stained nuclei, stained bright red, in each image. The average of the four fields was then calculated.

[4] = system: primary-derived human reproductive granulosa cells (HGC); experiment: TUNEL staining (apoptosis); format: cell-based
Experimental: as §4

KGN cells [5] = experiment: MTT cell viability assay; format: cell-based, human
Experimental: as §1, §2, §3

OVCAR-3 cells [6] = experiment: MTT cell viability assay; format: cell-based, human; conditions: OVCAR-3, MTT
Experimental: as §1, §2, §3

JAr cells [7] = experiment: LDH membrane integrity assay (necrosis); format: cell-based, human; conditions: exposure time not stated at the place (4 and 24 h tested)
Experimental: as §2
(§5) After 4 and 24 h exposure to the D. orbita fractions in opaque 96-well plates, a combined membrane integrity and caspase 3/7 assay were performed on the primary-derived granulosa cells and KGN cells. The CytoTox-ONE Homogeneous Membrane Integrity Assay kit (Promega) was applied according to the manufacturer’s instructions. After the fluorescence was read at 535EX/590EM, the Caspase-Glo 3/7® assay (Promega) was applied to the primary granulosa cells and KGN cells according to the manufacturer’s instructions for1h and the plates were read on full light to capture total luminescence. The LDH-membrane integrity assay alone was performed on the JAr and OVCAR-3 cells using the CytoTox-ONE Homogeneous Membrane Integrity Assay kit (Promega). This assay was repeated on three separate occasions (n = 3).

KGN cells [8] = experiment: LDH membrane integrity assay (necrosis); format: cell-based, human; conditions: exposure time not stated at the place (4 and 24 h tested)
Experimental: as §2, §5

OVCAR-3 cells [9] = experiment: LDH membrane integrity assay (necrosis); format: cell-based, human; conditions: OVCAR-3, exposure time not stated at the place (4 and 24 h tested)
Experimental: as §2, §5

[10] = system: caspase-3 and -7 activity in KGN cells; experiment: Caspase-Glo 3/7 assay; format: cell-based, human
Experimental: as §2, §5

[11] = system: caspase-3 and -7 activity in HGC; experiment: Caspase-Glo 3/7 assay; format: cell-based, human; conditions: 4 h treatment
Experimental: as §2, §5

JAr cells [12] = experiment: Crystal violet cell viability assay; format: cell-based; conditions: Homo sapiens
Experimental: as §1, §2
(§6) After 4 and 24 h exposure to D. orbita fractions in clear 96-well plates, media and all dead unattached cells were removed. The remaining adherent cells were rinsed with sterile 1× PBS and the crystal violet assay was performed. The crystal violet assay is a colourmetric assay in which only the nuclei of live cells take up the crystal violet stain (0.5%). The absorbance in the wells of the crystal violet plates were read on an automatic spectrophotometer at 570 nm, with reference absorbance 630 nm using KC Junior Software. This assay was repeated on three separate occasions (n = 3).

KGN cells [13] = experiment: Crystal violet cell viability assay; format: cell-based; conditions: Homo sapiens
Experimental: as §1, §2, §6

[14] = system: primary-derived human reproductive granulosa cells (HGC); experiment: Crystal violet cell viability assay; format: cell-based
Experimental: as §1, §2, §6

OVCAR-3 cells [15] = experiment: Crystal violet cell viability assay; format: cell-based; conditions: Homo sapiens, OVCAR-3, crystal violet
Experimental: as §1, §2, §6

[16] = system: primary-derived human reproductive granulosa cells (HGC); experiment: LDH membrane integrity assay (necrosis); format: cell-based
Experimental: as §2, §5

IC50 (OVCAR-3 cells [6]; Homo sapiens, OVCAR-3, 4 h, 4 h): 402 µM | IC50 (OVCAR-3 cells [6]; Homo sapiens, OVCAR-3, 24 h, 24 h): 446 µM | IC50 (OVCAR-3 cells [6]; Homo sapiens, OVCAR-3, 48 h, 48 h): 89 µM | IC50 (OVCAR-3 cells [6]; Homo sapiens, OVCAR-3, 72 h, 72 h): 22 µM | IC50 (OVCAR-3 cells [6]; 72 h): < 22 µM | IC50 (OVCAR-3 cells [15]; 4 h): 446 µM | IC50 (OVCAR-3 cells [15]; 24 h): 268 µM
Structure (SMILES): O=C1Nc2cc(Br)ccc2C1=O [6-Bromoisatin, 6-bromoisatin]
IC50 (JAr cells [1]; 4 h): 223 µM | IC50 (JAr cells [1]; 24 h): 446 µM | IC50 (JAr cells [1]; 48 h): 446 µM | IC50 ([2]; 4 h): > 4460 µM | IC50 ([2]; 24 h): > 4460 µM | IC50 ([2]; 48 h): 1780 µM | IC50 ([2]; 72 h): 2230 µM | TUNEL positive cells (KGN cells [3]; 4 h, 0.05 mg/mL): 58% | TUNEL labelled cells (KGN cells [3]; 24 h, 0.005 mg/mL): 53% | TUNEL positive cells ([4]; 4 h, 0.05 mg/mL): 27% | TUNEL labelled cells ([4]; 24 h, 0.005 mg/mL): 10% | IC50 (KGN cells [5]; 72 h): < 22 µM | IC50 (KGN cells [5]; Homo sapiens, 4 h): 178 µM | IC50 (KGN cells [5]; Homo sapiens, 24 h): 446 µM | IC50 (KGN cells [5]; Homo sapiens, 48 h): 22 µM | IC50 (KGN cells [5]; Homo sapiens, 72 h): 22 µM | concentration at which LDH release significantly increased (JAr cells [7]): 446 µM | concentration at which LDH release significantly increased (KGN cells [8]): 446 µM | concentration at which LDH release significantly increased (OVCAR-3 cells [9]): 446 µM | concentration at which caspase-3 and -7 activity (apoptosis) significantly increased ([10]; 4 h treatment): 22 µM | change of caspase-3 and 7 activity ([10]; 24 h, 22–2232 µM (0.005–0.5 mg/mL), dose-dependent): significantly decreased | concentration at which caspase-3 and -7 activity was detected [11]: 0.1 mg/mL | IC50 (JAr cells [12]; 4 h): 223 µM | IC50 (JAr cells [12]; 24 h): 178 µM | IC50 (KGN cells [13]; 4 h): 892 µM | IC50 (KGN cells [13]; 24 h): 223 µM | IC50 ([14]; 4 h): > 2230 µM | IC50 ([14]; 24 h): > 2230 µM | concentration required to cause LDH release (necrosis) ([16]; 4 h exposure): 2232 µM | concentration required to cause LDH release (necrosis) ([16]; 24 h exposure): 2232 µM
